Measured values as given in the NIST ThermoML archive (doi:10.1016/j.fluid.2015.05.002).
Numbers after ± are expanded uncertainties.

Settings: Liquid; for mass density: 295 K, 101.33 kPa, Vibrating tube method; for vapor or sublimation pressure: Closed cell (Static) method

CC(C)CC(C)(C)C [2,2,4-trimethylpentane]
Settings | mass density [kg/m3] | vapor or sublimation pressure [kPa]
– | 690.4 ± 0.2 | –
388.02 K | – | 163 ± 1
392.98 K | – | 184 ± 1
398.09 K | – | 208 ± 1
403.09 K | – | 233 ± 1
408.08 K | – | 262 ± 1
413.12 K | – | 293 ± 1
418.11 K | – | 326 ± 1
423.15 K | – | 362 ± 1
428.13 K | – | 401 ± 1
433.09 K | – | 442 ± 1
438.15 K | – | 488 ± 1
443.1 K | – | 536 ± 1
448.13 K | – | 589 ± 1
453.09 K | – | 644 ± 1
458.11 K | – | 704 ± 2
463.05 K | – | 769 ± 2
468.08 K | – | 837 ± 2
473.08 K | – | 911 ± 2
483.1 K | – | 1072 ± 2
493.14 K | – | 1255 ± 2
503.18 K | – | 1459 ± 2
508.17 K | – | 1571 ± 3

Cc1ccco1 [2-methylfuran]
Settings | mass density [kg/m3] | vapor or sublimation pressure [kPa]
– | 916.7 ± 0.4 | –
353.1 K | – | 167 ± 1
358.07 K | – | 194 ± 1
363.06 K | – | 224 ± 1
368.02 K | – | 257 ± 1
372.97 K | – | 294 ± 2
377.98 K | – | 334 ± 2
382.99 K | – | 379 ± 2
387.96 K | – | 427 ± 2
392.97 K | – | 480 ± 2
397.93 K | – | 538 ± 2
402.98 K | – | 600 ± 2
407.95 K | – | 670 ± 3
412.96 K | – | 743 ± 3
417.96 K | – | 823 ± 3
422.94 K | – | 909 ± 3
427.97 K | – | 1001 ± 4
432.93 K | – | 1099 ± 4
437.97 K | – | 1206 ± 4
442.93 K | – | 1319 ± 5
447.95 K | – | 1442 ± 5
452.97 K | – | 1571 ± 6
457.97 K | – | 1710 ± 6
462.96 K | – | 1856 ± 7
467.96 K | – | 2013 ± 7
472.97 K | – | 2179 ± 8
482.96 K | – | 2541 ± 9
492.93 K | – | 2947 ± 10
502.93 K | – | 3403 ± 12
507.92 K | – | 3651 ± 13

CC1CCCO1 (stereo not given) [2-methyltetrahydrofuran]
Settings | mass density [kg/m3] | vapor or sublimation pressure [kPa]
– | 851.6 ± 0.2 | –
368.95 K | – | 163 ± 1
372.89 K | – | 181 ± 1
377.88 K | – | 207 ± 1
382.89 K | – | 237 ± 1
387.86 K | – | 268 ± 1
392.93 K | – | 304 ± 1
398.03 K | – | 344 ± 1
403.02 K | – | 386 ± 1
408.05 K | – | 432 ± 1
413.07 K | – | 483 ± 1
418.08 K | – | 538 ± 1
423.11 K | – | 597 ± 2
428.18 K | – | 661 ± 2
433.16 K | – | 730 ± 2
438.19 K | – | 804 ± 2
443.19 K | – | 883 ± 2
448.17 K | – | 968 ± 2
453.22 K | – | 1060 ± 2
458.19 K | – | 1157 ± 2
463.25 K | – | 1262 ± 3
468.25 K | – | 1372 ± 3
473.2 K | – | 1489 ± 3
483.25 K | – | 1746 ± 3
493.28 K | – | 2035 ± 4
503.24 K | – | 2358 ± 4
508.21 K | – | 2532 ± 5
